US20200003759A1, “METHODS FOR IDENTIFYING METAP-2 MODULATORS” (Zafgen, Inc., priority 2017, published 2020)
Read-outs that look alike come from different tables or passages of the source.

Columns and labels:
[1] = format: in vivo
Method: Male beagle dogs 10 to 20 months of age (Marshall BioResources, North Rose, NY) were individually housed at the testing facility. […] […]. […] Body weight and food intake were recorded daily. Blood was collected before each dose and 4 hours after each dose for hematology (e.g., platelet count), coagulation parameters (e.g., thrombin time, antithrombin III), and protein panel analysis (e.g., D-dimer) (Nextcea, Woburn, Mass.).

HUVEC [2] = assay: Inhibition of HUVEC proliferation as a function of drug exposure time (washout assay)
Method: (§3) After incubation with drug or vehicle, EC proliferation was analyzed using a DNA dye (CyQUANT®) added to lysed cells to provide a fluorescent signal relative to the amount of DNA, allowing a measure of cell density.
A washout assay protocol is as follows: Day 1: plate cells: Plate cells at 0.3×10^4 cells/well in collagen coated 96-well plates; Incubate cells at 37° C., 5% CO2 in a humidified atmosphere overnight. Day 2: dilute and add MetAP2 inhibitor compounds: Dilute compounds in cell culture medium to the appropriate concentration. Add medium containing compound onto cells. Incubate cells at 37° C., 5% CO2 in a humidified atmosphere for the appropriate timepoint. Washout: After the indicated time, remove medium from the relevant samples and wash twice with PBS. Replace with fresh medium Incubate at 37° C., 5% CO2 in a humidified atmosphere until final incubation time. […] Measure cell proliferation using CyQuant assay.
The cells were incubated for 72 hrs and cell proliferation was measured to assess inhibition. […] Error bars represent the standard error of the mean for each condition (n=8 replicates per test condition pooled from 3 experiments).

[3] = system: von Willebrand factor (vWF); assay: vWF level in HUVEC lysate; format: cell-based, human; conditions: discrete time intervals and concentrations (FIG. 3)
Method: (§1) Cell lysates were stored at −80° C.
(§2) All values obtained were normalized against protein concentration.

[4] = system: plasminogen activator inhibitor-1 (PAI-1); assay: PAI-1 protein level in HUVEC lysate; format: cell-based, human
Method: as §1, §2

HUVEC [5] = assay: Inhibition of HUVEC (EC) proliferation, continuous exposure, CyQUANT DNA dye; conditions: Homo sapiens
Method: In vitro studies were conducted in cultured HUVECs (Lonza, Amboise, France). Cells were cultured in endothelial growth medium 2 cell culture media (EGM-2, Lonza, Amboise, France), passaged by seeding at 3×10^3 cells/mL on T175 flasks, and allowed to reach approximately 80% confluence before experiments were conducted. Cells were trypsinized and counted using trypan blue exclusion method using an automated Cedex cell counter.
as §3

p21 = p21 protein level in HUVEC lysate; format: cell-based, human
Method: as §1, §2

thrombomodulin (TM) = system: thrombomodulin (TM)
Method: For LC-MS/MS sample preparation, cell culture media was removed, cells were washed with 10 mL of Dulbecco's phosphate-buffered saline (DPBS), and 500 μL of T-PER lysis buffer was added. Cell lysates were stored at −80° C. […] For the 4- and 8-hour incubations, cells were maintained by standard culture for the remainder of the 72-hour incubation period. Cell cycle protein levels were assessed using enzyme-linked immunosorbent assays.
HUVEC cells were exposed to compounds at concentrations of 1 nM, 3 nM, 10 nM, and 20 nM. […] The protein assays performed included measurements of total p21, thrombomodulin, total p53, PAI-1, and von Willibrand factor (vWF). All values obtained were normalized against protein concentration.

p53 = p53 protein level in HUVEC lysate; format: cell-based, human; conditions: discrete time intervals and concentrations (FIG. 4)
Method: as §1, §2

[6] = cited from earlier work
[7] = dogs, 2 mg/kg s.c. Q3D for 10 days
[8] = 10 nM, 2-hour incubation, washed (FIG. 6B)
[9] = 72 hours of incubation, all concentrations (1, 3, 10, 20 nM)
[10] = shorter incubations of 4 or 8 hours
[11] = dogs, 0.6 mg/kg s.c. Q3D (FIG. 5)
[12] = patients with type 2 diabetes, 26 weeks of treatment
[13] = exposures as short as one hour (FIG. 1C)

SMILES: CO[C@@H]1[C@H](OC(=O)N2CC(CCN3CCOCC3)C2)CC[C@]2(CO2)[C@H]1[C@@]1(C)O[C@@H]1CC=C(C)C [Compound A]
- tolerability ([1]; dog, in vivo, sc, 2 mg/kg): well tolerated
- body weight [1, 7]: Weight loss was observed
- food intake [1, 7]: unchanged
- changes in clinical observations, hematology (platelet count), D-dimer, thrombin time, antithrombin III ([1]; dogs, 2 mg/kg s.c. Q3D for 10 days (FIG. 5)): no adverse changes
- survival ([1]; dogs, 2 mg/kg s.c. Q3D, scheduled dosing period): all animals survived
- effect on cell proliferation measured at 72 hours (HUVEC [2]; [8]): no effect on cell proliferation
- effect on cell proliferation after short-term exposure (HUVEC [2]; 4 hours or less, concentrations up to 50× the EC50): no effect on cell proliferation
- continuous exposure time needed for robust inhibition of EC proliferation (HUVEC [2]; FIG. 1B): ≥ 48 h
- % inhibition 6XIC90 4 h exposure (HUVEC [2]; HUVEC proliferation, 6XIC90, 4 h exposure): 5.6%
- % inhibition 6XIC90 24 h exposure (HUVEC [2]; HUVEC proliferation, 6XIC90, 24 h exposure): 41%
- % inhibition 20XIC90 4 h exposure (HUVEC [2]; HUVEC proliferation, 20XIC90, 4 h exposure): 12.4%
- % inhibition 20XIC90 24 h exposure (HUVEC [2]; HUVEC proliferation, 20XIC90, 24 h exposure): 40%
- vWF levels [3]: no effects on vWF levels
- PAI-1 protein level ([4]; any of the concentrations or time points): no effect on PAI-1 protein levels
- EC50 (HUVEC [5]; 72 h, read-out: concentration that inhibited EC proliferation by 50% (EC50)): 0.24 nM
- EC50 (HUVEC [5]; read-out: HUVEC Proliferation (EC50, nM)): 0.2 nM
- p21 protein level (p21; [9]): increased p21
- p21 protein level (p21; [10]): no meaningful changes
- TM protein level (thrombomodulin (TM); [9]): reduced TM protein levels
- TM protein level (thrombomodulin (TM); [10]): no meaningful changes
- p53 protein levels (p53): no effects on p53 protein levels

SMILES: CO[C@@H]1[C@H](OC(=O)/C=C/c2ccc(OCCN(C)C)cc2)CC[C@]2(CO2)[C@H]1[C@@]1(C)O[C@@H]1CC=C(C)C [Beloranib, beloranib]
- tolerability ([1]; dogs, 0.6 mg/kg s.c. Q3D): not well tolerated
- D-dimer concentrations [1, 11]: increased
- antithrombin III [1, 11]: decreased
- platelet count [1, 11]: decreased
- thrombin time [1, 11]: decreased
- hemostasis in toxicology studies ([1]; dogs, 0.6 mg/kg s.c. Q3D, within 2 weeks of drug administration): some animals developed evidence of impaired hemostasis
- adverse events ([6]; patients with obesity, PWS, or type 2 diabetes): adverse events (AEs) of venous thromboembolism occurred
- reduction in HbA1c [6, 12]: 2.0%
- weight loss [6, 12]: 13%
- reduction of cell proliferation measured at 72 hours (HUVEC [2]; [8]): approximately 60%
- effects on EC proliferation after short exposure (HUVEC [2]; [13]): occurred rapidly
- lowest concentration with effects on EC proliferation at short exposure (HUVEC [2]; [13]): 11 × the EC50
- vWF levels [3]: no effects on vWF levels
- PAI-1 protein level ([4]; 10 and 20 nM at the earliest timepoint): increased PAI-1 levels
- PAI-1 protein level ([4]; all concentrations at 72 hours): increased PAI-1 levels
- p21 protein level (p21; [9]): increased p21
- p21 protein level (p21; short 4- or 8-hour incubations, 10 and 20 nM): increased p21
- p53 protein levels (p53): no effects on p53 protein levels
